Experimental data taken from patent US20100168102A9, “Amide Derivatives as Kinase Inhibitors” (Devgen NV, priority 2005, published 2010).
Structures can show the parent of a compound that is named as a salt. Where two headings read alike, the source gives them in different places.

Experiments:
PKC epsilon = target: T1, PKC epsilon (Homo sapiens, UniProt Q02156); experiment: Biochemical assay for PKC epsilon (fluorescence polarization, Protein Kinase C Assay Kit, Red); settings: read-out: IC50 μM PKCε
T1 construct: purchased Invitrogen P2282
T1 sequence (Q02156 1-737): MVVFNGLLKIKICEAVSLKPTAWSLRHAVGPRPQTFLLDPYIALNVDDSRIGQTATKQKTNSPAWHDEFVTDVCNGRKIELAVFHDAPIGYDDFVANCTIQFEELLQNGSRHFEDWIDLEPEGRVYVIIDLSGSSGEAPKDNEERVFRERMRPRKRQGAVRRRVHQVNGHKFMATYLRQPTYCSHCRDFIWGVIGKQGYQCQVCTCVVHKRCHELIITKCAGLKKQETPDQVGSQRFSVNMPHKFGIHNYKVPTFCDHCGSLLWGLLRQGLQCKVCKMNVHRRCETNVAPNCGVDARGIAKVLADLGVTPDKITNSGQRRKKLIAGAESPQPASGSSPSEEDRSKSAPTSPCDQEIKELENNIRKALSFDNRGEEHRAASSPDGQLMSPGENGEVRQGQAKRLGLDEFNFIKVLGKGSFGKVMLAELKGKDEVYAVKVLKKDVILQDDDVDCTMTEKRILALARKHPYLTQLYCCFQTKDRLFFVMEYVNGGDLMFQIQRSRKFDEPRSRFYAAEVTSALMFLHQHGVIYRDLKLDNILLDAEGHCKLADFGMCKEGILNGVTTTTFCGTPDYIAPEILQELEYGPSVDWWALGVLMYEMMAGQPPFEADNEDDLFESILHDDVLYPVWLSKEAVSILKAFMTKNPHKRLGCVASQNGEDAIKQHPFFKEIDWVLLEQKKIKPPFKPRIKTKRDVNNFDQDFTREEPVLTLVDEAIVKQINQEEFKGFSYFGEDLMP
How it was run: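 Read-out was fluorescence-polarization competition between phosphorylated substrate and a rhodamine PKC tracer for an anti-phosphoserine antibody, added with EDTA stop after an 80 min room-temperature kinase reaction with ATP and protein substrate (Mg2+/Ca2+ buffer). Enzyme (10 ng/ml final) was preincubated with compound for 30 min.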

human ROCKα/ROCKII mix = target: T2, human ROCKα/ROCKII mix (Homo sapiens, UniProt O75116); experiment: Biochemical assay for ROCK (fluorescence polarization, ROCK IMAP Kit)
T2 construct: purchased Upstate Biotechnology 14-451
T2 sequence (O75116 11-552 limits assumed): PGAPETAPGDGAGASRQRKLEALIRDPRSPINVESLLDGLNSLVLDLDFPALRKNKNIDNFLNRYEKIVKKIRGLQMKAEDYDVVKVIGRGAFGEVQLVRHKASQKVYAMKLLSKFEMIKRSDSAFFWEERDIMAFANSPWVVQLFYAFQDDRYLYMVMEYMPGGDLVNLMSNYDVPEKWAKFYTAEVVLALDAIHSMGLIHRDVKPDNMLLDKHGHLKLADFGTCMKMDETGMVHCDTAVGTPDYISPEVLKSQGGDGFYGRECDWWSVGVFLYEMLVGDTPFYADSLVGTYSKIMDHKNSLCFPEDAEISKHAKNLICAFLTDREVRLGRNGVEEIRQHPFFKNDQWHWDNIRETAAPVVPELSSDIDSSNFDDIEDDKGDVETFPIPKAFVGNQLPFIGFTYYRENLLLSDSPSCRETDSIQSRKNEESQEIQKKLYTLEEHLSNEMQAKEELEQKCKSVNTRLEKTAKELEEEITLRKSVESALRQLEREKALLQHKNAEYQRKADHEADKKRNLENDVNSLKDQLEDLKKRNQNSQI

[1] = Table 2, compounds of Formula XIII
[2] = compounds of Formula XIV, Table 3

Row | Compound | IC50 (PKC epsilon; [1]) [µM] | IC50 (human ROCKα/ROCKII mix; [1]) [µM] | IC50 (PKC epsilon) [µM] | IC50 (human ROCKα/ROCKII mix) [µM] | other results
1 | NC(CNC(=O)c1csc(-c2ccccc2)n1)c1ccc(C(=O)Nc2ccncc2)cc1 (centres unmarked) [Compound 124, 2-Phenyl-thiazole-4-carboxylic acid {2-amino-2-[4-(pyridin-4-ylcarbamoyl)-phenyl]-ethyl}-amide] | 5 to 50 | 0.5 to 5 | – | – | –
2 | COc1ccc(NC(=S)NCC(N)c2ccc(C(=O)Nc3ccncc3)cc2)cc1 (centres unmarked) [Compound 14, 4-{1-amino-2-[3-(4-methoxy-phenyl)-thioureido]-ethyl}-N-pyridin-4-yl-benzamide] | – | – | 0.5 to 5 | 0.5 to 5 | –
3 | 4-(1-Amino-2-{[2-(4-chloro- phenyl)-acetyl]-methyl- amino}-ethyl)- N-pyridin-4-yl-benzamide [Compound 460] | – | – | 5 to 50 | 0.5 to 5 | –
4 | NC(c1ccc(C(=O)Nc2ccncc2)cc1)C1CCCN1C(=O)Cc1cccc(F)c1 (centres unmarked) [Compound 569] | – | – | 5 to 50 | 0.5 to 5 | –
5 | CN(C)c1ccc(NC(=O)NCC(N)c2ccc(C(=O)Nc3ccncc3)cc2)cc1 (centres unmarked) [Compound 21, 4-{1-amino-2-[3-(4-dimethylamino-phenyl)-ureido]-ethyl}-N-pyridin-4-yl-benzamide] | – | – | 0.5 to 5 | 0.05 to 0.5 | –
6 | N#Cc1cccc(C(=O)NCC(N)c2ccc(C(=O)Nc3ccncc3)cc2)c1 (centres unmarked) [Compound 94, 4-[1-amino-2-(3-cyano-benzoylamino)-ethyl]-N-pyridin-4-yl-benzamide] | 0.5 to 5 | 0.5 to 5 | – | – | –
7 | NC(c1ccc(C(=O)Nc2ccncc2)cc1)C1CCCN1C(=O)C1(c2cccs2)CC1 (centres unmarked) [Compound 549, 4-{Amino-[1-(1-thiophen-2-yl-cyclopropanecarbonyl)-pyrrolidin-2-yl]-methyl}-N-pyridin-4-yl-benzamide] | – | – | 5 to 50 | 0.5 to 5 | –
8 | NC(CC(=O)NC(c1ccccc1)c1ccccc1)c1ccc(C(=O)Nc2ccncc2)cc1 (centres unmarked) [Compound 225, 4-[1-Amino-2-(benzhydryl-carbamoyl)-ethyl]-N-pyridin-4-yl-benzamide] | – | – | – | – | IC50 (PKC epsilon; [2]): 0.5 to 5 µM; IC50 (human ROCKα/ROCKII mix; [2]): 0.05 to 0.5 µM
9 | COc1ccc2[nH]c(C(=O)NCC(N)c3ccc(C(=O)Nc4ccncc4)cc3)cc2c1 (centres unmarked) [Compound 128, 5-Methoxy-1H-indole-2-carboxylic acid {2-amino-2-[4-(pyridin-4-ylcarbamoyl)-phenyl]-ethyl}-amide] | 5 to 50 | 0.5 to 5 | – | – | –
10 | NC(CNC(=O)c1ccsc1)c1ccc(C(=O)Nc2ccncc2)cc1 (centres unmarked) [Compound 115, Thiophene-3-carboxylic acid {2-amino-2-[4-(pyridin-4-ylcarbamoyl)-phenyl]-ethyl}-amide] | 0.5 to 5 | 0.05 to 0.5 | – | – | –
11 | NC(CNC(=O)c1c[nH]cn1)c1ccc(C(=O)Nc2ccncc2)cc1 (centres unmarked) [Compound 122, 1H-Imidazole-4-carboxylic acid {2-amino-2-[4-(pyridin-4-ylcarbamoyl)-phenyl]-ethyl}-amide] | 5 to 50 | 0.5 to 5 | – | – | –
12 | NC(c1ccc(C(=O)Nc2ccncc2)cc1)C1CCCN1C(=O)C1(c2ccc(F)cc2)CC1 (centres unmarked) [Compound 574, 4-(Amino-{1-[1-(4-fluoro-phenyl)-cyclopropanecarbonyl]-pyrrolidin-2-yl}-methyl)-N-pyridin-4-yl-benzamide] | – | – | 0.5 to 5 | 0.5 to 5 | –
13 | COc1ccc(CNC(=O)CC(N)c2ccc(C(=O)Nc3ccncc3)cc2)cc1OC (centres unmarked) [Compound 240, 4-[1-Amino-2-(3,4-dimethoxy-benzylcarbamoyl)-ethyl]-N-pyridin-4-yl-benzamide] | – | – | – | – | IC50 (PKC epsilon; [2]): 5 to 50 µM; IC50 (human ROCKα/ROCKII mix; [2]): 0.05 to 0.5 µM
14 | CN(CCO)C(=O)CC(N)c1ccc(C(=O)Nc2ccncc2)cc1 (centres unmarked) [Compound 179, 4-{1-amino-2-[(2-hydroxy-ethyl)-methyl-carbamoyl]-ethyl}-N-pyridin-4-yl-benzamide] | – | – | – | – | IC50 (PKC epsilon; [2]): 0.5 to 5 µM; IC50 (human ROCKα/ROCKII mix; [2]): 0.05 to 0.5 µM
15 | NC(CNC(=S)Nc1ccccc1)c1ccc(C(=O)Nc2ccncc2)cc1 (centres unmarked) [Compound 11, 4-[1-amino-2-(3-phenyl-thioureido)-ethyl]-N-pyridin-4-yl-benzamide] | – | – | 0.5 to 5 | 0.05 to 0.5 | –
16 | CN(CC(N)c1ccc(C(=O)Nc2ccncc2)cc1)C(=O)Cc1cccc(F)c1F (centres unmarked) [Compound 477, 4-(1-Amino-2-{[2-(2,3-difluoro-phenyl)-acetyl]-methyl-amino}-ethyl)-N-pyridin-4-yl-benzamide] | – | – | 5 to 50 | 0.5 to 5 | –

Row | Compound | IC50 (PKC epsilon; [1]) [µM] | IC50 (human ROCKα/ROCKII mix; [1]) [µM] | IC50 (PKC epsilon) [µM] | IC50 (human ROCKα/ROCKII mix) [µM] | other results
17 | CN(CC(N)c1ccc(C(=O)Nc2ccncc2)cc1)C(=O)Cc1c(F)cccc1Cl (centres unmarked) [Compound 496, 4-(1-Amino-2-{[2-(2-chloro-6-fluoro-phenyl)-acetyl]-methyl-amino}-ethyl)-N-pyridin-4-yl-benzamide] | – | – | 5 to 50 | 0.5 to 5 | –
18 | NC(CNC(=O)c1ccc2[nH]ccc2c1)c1ccc(C(=O)Nc2ccncc2)cc1 (centres unmarked) [Compound 132, 1H-Indole-5-carboxylic acid {2-amino-2-[4-(pyridin-4-ylcarbamoyl)-phenyl]-ethyl}-amide] | 0.5 to 5 | 0.05 to 0.5 | – | – | –
19 | 4-{1-Amino-2-[methyl-(2- naphthalen-1-yl-acetyl)- amino]-ethyl}- N-pyridin-4-yl-benzamide [Compound 435] | – | – | 5 to 50 | 0.5 to 5 | –
20 | NC(CC(=O)NCc1cccc(F)c1)c1ccc(C(=O)Nc2ccncc2)cc1 (centres unmarked) [Compound 257, 4-[1-Amino-2-(3-fluoro-benzylcarbamoyl)-ethyl]-N-pyridin-4-yl-benzamide] | – | – | – | – | IC50 (PKC epsilon; [2]): 0.5 to 5 µM; IC50 (human ROCKα/ROCKII mix; [2]): 0.05 to 0.5 µM
21 | N[C@@H](CNC(=O)C1(c2ccc(Cl)cc2)CC1)c1ccc(C(=O)Nc2ccncc2)cc1 [Compound 398, 4-((R)-1-Amino-2-{[1-(4-chloro-phenyl)-cyclopropanecarbonyl]-amino}-ethyl)-N-pyridin-4-yl-benzamide dihydrochloric acid salt] | – | – | 0.5 to 5 | 0.5 to 5 | –
22 | NC(CC(=O)NC(c1ccccc1)c1ccc(Cl)cc1)c1ccc(C(=O)Nc2ccncc2)cc1 (centres unmarked) [Compound 255, 4-(1-Amino-2-{[(4-chloro-phenyl)-phenyl-methyl]-carbamoyl}-ethyl)-N-pyridin-4-yl-benzamide] | – | – | – | – | IC50 (PKC epsilon; [2]): 0.5 to 5 µM; IC50 (human ROCKα/ROCKII mix; [2]): 0.05 to 0.5 µM
23 | COc1cc(OC)cc(C(=O)NCC(N)c2ccc(C(=O)Nc3ccncc3)cc2)c1 (centres unmarked) [Compound 79, 4-[1-amino-2-(3,5-dimethoxy-benzoylamino)-ethyl]-N-pyridin-4-yl-benzamide] | 0.5 to 5 | 0.5 to 5 | – | – | –
24 | NC(c1ccc(C(=O)Nc2ccncc2)cc1)C1CCCN1C(=O)Cc1cccc(F)c1F (centres unmarked) [Compound 578, 4-(Amino-{1-[2-(2,3-difluoro-phenyl)-acetyl]-pyrrolidin-2-yl}-methyl)-N-pyridin-4-yl-benzamide] | – | – | 0.5 to 5 | 0.5 to 5 | –
25 | NC(CNC(=O)C1CCC1)c1ccc(C(=O)Nc2ccncc2)cc1 (centres unmarked) [Compound 41, 4-[1-Amino-2-(cyclobutanecarbonyl-amino)-ethyl]-N-pyridin-4-yl-benzamide] | 0.5 to 5 | 0.5 to 5 | – | – | –
26 | NC(CNC(=O)c1cnnc2ccccc12)c1ccc(C(=O)Nc2ccncc2)cc1 (centres unmarked) [Compound 113, Cinnoline-4-carboxylic acid {2-amino-2-[4-(pyridin-4-ylcarbamoyl)-phenyl]-ethyl}-amide] | 0.5 to 5 | 0.5 to 5 | – | – | –
27 | COc1cccc(CC(=O)NCC(N)c2ccc(C(=O)Nc3ccncc3)cc2)c1 (centres unmarked) [Compound 139, 4-{1-amino-2-[2-(3-methoxy-phenyl)-acetylamino]-ethyl}-N-pyridin-4-yl-benzamide] | 0.5 to 5 | 0.05 to 0.5 | – | – | –
28 | CC(C)(C(=O)N1CCCC1C(N)c1ccc(C(=O)Nc2ccncc2)cc1)c1ccc(F)cc1 (centres unmarked) [Compound 573, 4-(Amino-{1-[2-(4-fluoro-phenyl)-2-methyl-propionyl]-pyrrolidin-2-yl}-methyl)-N-pyridin-4-yl-benzamide] | – | – | 0.5 to 5 | 0.5 to 5 | –
29 | 4-[1-amino-2-(2-pyrazol-1-yl- ethylcarbamoyl)-ethyl]-N- pyridin-4-yl-benzamide [Compound 312] | – | – | – | – | IC50 (PKC epsilon; [2]): 0.5 to 5 µM; IC50 (human ROCKα/ROCKII mix; [2]): 0.05 to 0.5 µM
30 | CN(CC(N)c1ccc(C(=O)Nc2ccncc2)cc1)C(=O)C1CCOc2ccc(F)cc21 (centres unmarked) [Compound 516, 6-Fluoro-chroman-4-carboxylic acid {2-amino-2-[4-(pyridin-4-ylcarbamoyl)-phenyl]-ethyl}-methyl-amide] | – | – | 5 to 50 | 0.5 to 5 | –
31 | CN(CC(N)c1ccc(C(=O)Nc2ccncc2)cc1)C(=O)C1(c2ccc(F)c(F)c2)CC1 (centres unmarked) [Compound 486, 4-(1-Amino-2-{[1-(3,4-difluoro-phenyl)-cyclopropanecarbonyl]-methyl-amino}-ethyl)-N-pyridin-4-yl-benzamide] | – | – | 0.5 to 5 | 0.5 to 5 | –
